The EC50 is the concentration at which the effect is half-maximal.

Among the data in patent US9499550B2 (BRISTOL-MYERS SQUIBB COMPANY, priority 2012, dated 2016) are EC50 values, retold here.

The subject of test [1] is HCV genotype 1b (Con1) replicon in HUH-7 cells. As to the kind of experiment: HCV replicon luciferase reporter assay, genotype 1b. As to conditions: Hepatitis C virus, Huh-7, 72 h, HCV genotype 1b replicon luciferase assay, 3 days incubation, range class, read-out: LE_1b (EC50, range). Type of test: cell-based. Put shortly: (§1)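 Replicon inhibition for both genotypes was measured as Renilla luciferase signal (EnduRen, 7.5 μM final, 2 h) after 3-day, 37° C exposure of replicon-bearing HUH-7 cells in 4% FCS DMEM, 0.5% DMSO. The 1b construct carries S1179I; the 1a H77 construct carries P1496L and S2204I. Twenty-point, 3-fold dilutions were fitted four-parametrically for EC50, and CC50 was taken from multiplexed Cell Titer-Blue.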

The subject of test [2] is HCV genotype 1a (H77 strain) replicon in HUH-7 cells. The test is described as follows: HCV replicon luciferase reporter assay, genotype 1a. It is filed as cell-based. The conditions noted are these: Hepatitis C virus, Huh-7, 72 h, HCV genotype 1a replicon luciferase assay, 3 days incubation, range class, read-out: LE_1a (EC50, range). Put shortly: as §1
(In general: In antiviral work, replicon cells carry a viral genome segment that copies itself.)

Consider `COc1cnc(O[C@@H]2C[C@H]3C(=O)N[C@]4(C(=O)NS(=O)(=O)C5(CF)CC5)C[C@H]4/C=C\CC[C@@H](C)C[C@@H](C)[C@H](NC(=O)OC4COC4)C(=O)N3C2)c2ccccc12` [Compound 1041, oxetan-3-yl ((2R,6S,7R,9R,13aS,14aR,16aS,Z)-14a-(((1-(fluoromethyl)cyclopropyl)sulfonyl)carbamoyl)-2-((4-methoxyisoquinolin-1-yl)oxy)-7,9-dimethyl-5,16-dioxo-1,2,3,5,6,7,8,9,10,11,13a,14,14a,15,16,16a-hexadecahydrocyclopropa[e]pyrrolo[1,2-a][1,4]diazacyclopentadecin-6-yl)carbamate], for which the figures for the 50% effective concentration (EC50) in test [1] and in test [2] were less than 5.46 nM and 4.82 to 103 nM, respectively.
With `COc1cnc(O[C@@H]2C[C@H]3C(=O)N[C@]4(C(=O)NS(=O)(=O)C5(CF)CC5)C[C@H]4/C=C\CC[C@@H](C)C[C@@H](C)[C@H](NC(=O)OC(C)(C)C(C)(F)F)C(=O)N3C2)c2ccccc12` [Compound 1043, 3,3-difluoro-2-methylbutan-2-yl((2R,6S,7R,9R,13aS,14aR,16aS,Z)-14a-(((1-(fluoromethyl)cyclopropyl)sulfonyl)carbamoyl)-2-((4-methoxyisoquinolin-1-yl)oxy)-7,9-dimethyl-5,16-dioxo-1,2,3,5,6,7,8,9,10,11,13a,14,14a,15,16,16a-hexadecahydrocyclopropa[e]pyrrolo[1,2-a][1,4]diazacyclopentadecin-6-yl)carbamate], the half-maximal effective concentration (EC50) in test [1] and in test [2] was less than 5.46 nM each time.
Take `CCC(C)(C)OC(=O)N[C@@H]1C(=O)N2C[C@H](Oc3ncc(OC)c4ccccc34)C[C@H]2C(=O)N[C@]2(C(=O)NS(=O)(=O)C3(CF)CC3)C[C@H]2/C=C\CC[C@@H](C)C[C@H]1C` [Compound 1044, tert-pentyl ((2R,6S,7R,9R,13aS,14aR,16aS,Z)-14a-(((1-(fluoromethyl)cyclopropyl)sulfonyl)carbamoyl)-2-((4-methoxyisoquinolin-1-yl)oxy)-7,9-dimethyl-5,16-dioxo-1,2,3,5,6,7,8,9,10,11,13a,14,14a,15,16,16a-hexadecahydrocyclopropa[e]pyrrolo[1,2-a][1,4]diazacyclopentadecin-6-yl)carbamate]: the concentration giving a half-maximal response (EC50) in test [1] and in test [2] was less than 5.46 nM in each case.
Take `COc1cnc(O[C@@H]2C[C@H]3C(=O)N[C@]4(C(=O)NS(=O)(=O)C5(CF)CC5)C[C@H]4/C=C\CC[C@@H](C)C[C@@H](C)[C@H](NC(=O)OC4(C)COC4)C(=O)N3C2)c2ccccc12` [Compound 1045, 3-methyloxetan-3-yl ((2R,6S,7R,9R,13aS,14aR,16aS,Z)-14a-(((1-(fluoromethyl)cyclopropyl)sulfonyl)carbamoyl)-2-((4-methoxyisoquinolin-1-yl)oxy)-7,9-dimethyl-5,16-dioxo-1,2,3,5,6,7,8,9,10,11,13a,14,14a,15,16,16a-hexadecahydrocyclopropa[e]pyrrolo[1,2-a][1,4]diazacyclopentadecin-6-yl)carbamate]: the 50% effective concentration (EC50) in test [1] and in test [2] was less than 5.46 nM throughout.
Take `COc1cnc(O[C@@H]2C[C@H]3C(=O)N[C@]4(C(=O)NS(=O)(=O)C5(CF)CC5)C[C@H]4/C=C\CC[C@@H](C)C[C@@H](C)[C@H](NC(=O)OC4(C(F)(F)F)COC4)C(=O)N3C2)c2ccccc12` [Compound 1046, 3-(trifluoromethyl)oxetan-3-yl ((2R,6S,7R,9R,13aS,14aR,16aS,Z)-14a-(((1-(fluoromethyl)cyclopropyl)sulfonyl)carbamoyl)-2-((4-methoxyisoquinolin-1-yl)oxy)-7,9-dimethyl-5,16-dioxo-1,2,3,5,6,7,8,9,10,11,13a,14,14a,15,16,16a-hexadecahydrocyclopropa[e]pyrrolo[1,2-a][1,4]diazacyclopentadecin-6-yl)carbamate]: the EC50 in test [1] and in test [2] was less than 5.46 nM each time.
As for `COc1cnc(O[C@@H]2C[C@H]3C(=O)N[C@]4(C(=O)NS(=O)(=O)C5(CF)CC5)C[C@H]4/C=C\CC[C@H](C)C[C@@H](C)[C@H](NC(=O)OC4(C(F)(F)F)CCOCC4)C(=O)N3C2)c2ccccc12` [Compound 1047, 4-(trifluoromethyl)tetrahydro-2H-pyran-4-yl((2R,6S,7R,9S,13aS,14aR,16aS,Z)-14a-(((1-(fluoromethyl)cyclopropyl)sulfonyl)carbamoyl)-2-((4-methoxyisoquinolin-1-yl)oxy)-7,9-dimethyl-5,16-dioxo-1,2,3,5,6,7,8,9,10,11,13a,14,14a,15,16,16a-hexadecahydrocyclopropa[e]pyrrolo[1,2-a][1,4]diazacyclopentadecin-6-yl)carbamate], the EC50 in test [1] and in test [2] was 4.82 to 103 nM each time.
Consider `COc1cnc(O[C@@H]2C[C@H]3C(=O)N[C@]4(C(=O)NS(=O)(=O)C5(CF)CC5)C[C@H]4/C=C\CC[C@@H](C)C[C@@H](C)[C@H](NC(=O)OC4(C(F)(F)F)CCOCC4)C(=O)N3C2)c2ccccc12` [Compound 1048, 4-(trifluoromethyl)tetrahydro-2H-pyran-4-yl((2R,6S,7R,9R,13aS,14aR,16aS,Z)-14a-(((1-(fluoromethyl)cyclopropyl)sulfonyl)carbamoyl)-2-((4-methoxyisoquinolin-1-yl)oxy)-7,9-dimethyl-5,16-dioxo-1,2,3,5,6,7,8,9,10,11,13a,14,14a,15,16,16a-hexadecahydrocyclopropa[e]pyrrolo[1,2-a][1,4]diazacyclopentadecin-6-yl)carbamate], for which the concentration for a half-maximal effect (EC50) in test [1] and in test [2] was less than 5.46 nM throughout.
Regarding `COCC(C)(C)OC(=O)N[C@@H]1C(=O)N2C[C@H](Oc3ncc(OC)c4ccccc34)C[C@H]2C(=O)N[C@]2(C(=O)NS(=O)(=O)C3(CF)CC3)C[C@H]2/C=C\CC[C@H](C)C[C@H]1C` [Compound 1049, 1-methoxy-2-methylpropan-2-yl((2R,6S,7R,9S,13aS,14aR,16aS,Z)-14a-(((1-(fluoromethyl)cyclopropyl)sulfonyl)carbamoyl)-2-((4-methoxyisoquinolin-1-yl)oxy)-7,9-dimethyl-5,16-dioxo-1,2,3,5,6,7,8,9,10,11,13a,14,14a,15,16,16a-hexadecahydrocyclopropa[e]pyrrolo[1,2-a][1,4]diazacyclopentadecin-6-yl)carbamate], the EC50 in test [1] and in test [2] was 4.82 to 103 nM throughout.
Regarding `COCC(C)(C)OC(=O)N[C@@H]1C(=O)N2C[C@H](Oc3ncc(OC)c4ccccc34)C[C@H]2C(=O)N[C@]2(C(=O)NS(=O)(=O)C3(CF)CC3)C[C@H]2/C=C\CC[C@@H](C)C[C@H]1C` [Compound 1050, 1-methoxy-2-methylpropan-2-yl((2R,6S,7R,9R,13aS,14aR,16aS,Z)-14a-(((1-(fluoromethyl)cyclopropyl)sulfonyl)carbamoyl)-2-((4-methoxyisoquinolin-1-yl)oxy)-7,9-dimethyl-5,16-dioxo-1,2,3,5,6,7,8,9,10,11,13a,14,14a,15,16,16a-hexadecahydrocyclopropa[e]pyrrolo[1,2-a][1,4]diazacyclopentadecin-6-yl)carbamate], the EC50 in test [1] and in test [2] was less than 5.46 nM in each case.
On to `COc1cnc(O[C@@H]2C[C@H]3C(=O)N[C@]4(C(=O)NS(=O)(=O)C5(CF)CC5)C[C@H]4/C=C\CC[C@H](C)C[C@@H](C)[C@H](NC(=O)OC4(C)CCOCC4)C(=O)N3C2)c2ccccc12` [Compound 1051, 4-methyltetrahydro-2H-pyran-4-yl((2R,6S,7R,9S,13aS,14aR,16aS,Z)-14a-(((1-(fluoromethyl)cyclopropyl)sulfonyl)carbamoyl)-2-((4-methoxyisoquinolin-1-yl)oxy)-7,9-dimethyl-5,16-dioxo-1,2,3,5,6,7,8,9,10,11,13a,14,14a,15,16,16a-hexadecahydrocyclopropa[e]pyrrolo[1,2-a][1,4]diazacyclopentadecin-6-yl)carbamate], for which the EC50 in test [1] and in test [2] was 4.82 to 103 nM each time.
On to `COc1cnc(O[C@@H]2C[C@H]3C(=O)N[C@]4(C(=O)NS(=O)(=O)C5(CF)CC5)C[C@H]4/C=C\CC[C@@H](C)C[C@@H](C)[C@H](NC(=O)OC4(C)CCOCC4)C(=O)N3C2)c2ccccc12` [Compound 1052, 4-methyltetrahydro-2H-pyran-4-yl((2R,6S,7R,9R,13aS,14aR,16aS,Z)-14a-(((1-(fluoromethyl)cyclopropyl)sulfonyl)carbamoyl)-2-((4-methoxyisoquinolin-1-yl)oxy)-7,9-dimethyl-5,16-dioxo-1,2,3,5,6,7,8,9,10,11,13a,14,14a,15,16,16a-hexadecahydrocyclopropa[e]pyrrolo[1,2-a][1,4]diazacyclopentadecin-6-yl)carbamate], for which the EC50 in test [1] was less than 5.46 nM; in test [2], 4.82 to 103 nM.
For `COc1cnc(O[C@@H]2C[C@H]3C(=O)N[C@]4(C(=O)NS(=O)(=O)C5(CF)CC5)C[C@H]4/C=C\CC[C@H](C)C[C@@H](C)[C@H](NC(=O)OC4(C(C)C)COC4)C(=O)N3C2)c2ccccc12` [Compound 1053, 3-isopropyloxetan-3-yl ((2R,6S,7R,9S,13aS,14aR,16aS,Z)-14a-(((1-(fluoromethyl)cyclopropyl)sulfonyl)carbamoyl)-2-((4-methoxyisoquinolin-1-yl)oxy)-7,9-dimethyl-5,16-dioxo-1,2,3,5,6,7,8,9,10,11,13a,14,14a,15,16,16a-hexadecahydrocyclopropa[e]pyrrolo[1,2-a][1,4]diazacyclopentadecin-6-yl)carbamate], the EC50 in test [1] and in test [2] was 4.82 to 103 nM in each case.
